Measured values from a melting point compilation (Tetko et al.; mined from patent text by program, amines drawn as free bases though some values may be those of a salt).

Row | Structure (SMILES) | melting point [°C]
1 | CCOC(=O)c1cc(C=O)cn1C | 75 to 76
2 | c1ccc(-c2cnccn2)cc1 | 69 to 70
3 | CSc1ccc(C=O)cc1Cl | 58 to 59
4 | O=C(CCCO)N1CCCCC1 | 31 to 33
5 | CC1(C(=O)Cn2cncn2)CC1 | 58
6 | COc1ccc(-c2cc3cc(OC)cc(C(=O)N(C)OC)c3o2)cc1 | 109 to 111
7 | COC(=O)C(OC)(c1ccccc1)c1nc(OC)cc(OC)n1 (stereo not given) | 72 to 76
8 | CCC(=O)c1ccnc(OC)c1 | 38
9 | COc1ccc(CCl)cc1OC | 50 to 51
10 | Cc1ncc(CCCCC(=O)O)s1 | 75
11 | O=C(Cc1ccc(C(F)(F)F)cc1)c1ccc(F)cc1 | 93 to 95
12 | CN(C)c1cc2c(cc1C(F)(F)F)NC(=O)CC(c1cccc(-c3ccncc3)c1)=N2 | 202
13 | CC(C)(C)Cc1ccc(Oc2ccc(C(O)c3ccncc3)cc2)cc1 (stereo not given) | 120 to 122
14 | FC(F)(F)Oc1ccc(-n2cnc(-c3ccc(CBr)cc3)n2)cc1 | 124 to 126
15 | CCOC(=O)CCCCCOC1OC(COC(C)=O)C(OC(C)=O)C(OC(C)=O)C1NC(C)=O (stereo not given) | 101 to 102
16 | Cn1c(-c2ccc(-c3ccccn3)cc2)cnc1[C@H](Cc1ccccn1)N(C=O)c1cc2cc(Cl)ccc2o1 | 175 to 180
17 | OCCN1CCCNC1=S | 112 to 114
18 | CCN(CC)c1ccccc1C(=O)O | 122 to 123
19 | CSc1nccc(C(C)=NO)n1 | 150 to 152
20 | CN(O)C(=O)C(=Cc1ccc2ccccc2c1)c1ccc(Br)cc1 | 118 to 120
21 | CON(C)C(=O)c1ccc(-c2ccc(CN(C)C)cc2)cc1 | 42 to 43
22 | Cc1cc(C)cc(OCC(O)CCCl)c1 (stereo not given) | 74 to 76
23 | COC(=O)Nc1nc(Cc2ccccc2)c(C(=O)c2sc(NC(=O)OC)nc2Cc2ccccc2)s1 | 189 to 190
24 | O=C(Nc1ccc(-n2nc(C(F)(F)F)cc2C(F)(F)F)cc1)c1cc(F)c(Cl)cc1F | 160 to 162
25 | CCCCc1ncc[nH]1 | 35 to 37
26 | Cc1nc2ccc(Cl)cc2n2c(-c3ccccc3Cl)nnc12 | 209

Row | Structure (SMILES) | melting point [°C]
27 | Cc1nc2c3c(ccc2n1C)[C@H](O)C[C@H](c1ccccc1)O3 (relative stereo) | 228 to 229
28 | CCCCS(=O)c1ccc(C(=O)OC)nc1 (stereo not given) | 150 to 154
29 | CC(=O)c1ccc(NC(=O)NN2CC=CCC2)cc1 | 142 to 143
30 | O=C(NCCc1cccs1)c1ccc(-c2ccccc2)cc1 | 164 to 166
31 | Nc1nc(N)nc(-c2cncc(Br)c2)n1 | > 260
32 | CCOC(=O)c1cc(-c2ccncc2)c(C(F)(F)F)nc1N | 121 to 125
33 | COc1ccc(/C=C/c2cc(/C=C/c3ccc4cc[nH]c4c3)n[nH]2)c(OCc2ccccn2)c1 | 107 to 115
34 | Nc1nccc(-c2c[nH]c3nccc(C#Cc4ccccc4)c23)n1 | > 210
35 | Cc1cc(CC2(Cc3ccncc3)c3cccnc3-c3ncccc32)cc(C)n1 | > 240
36 | COc1ccc2c(Cl)cc(-c3ccc(C)cc3)nc2c1 | 129 to 131
37 | CCOC(=O)/C=C(C)/C(F)=C/C=C(C)/C=C/c1c(Cl)cc(OC)c(Cl)c1Cl | 140 to 142
38 | CN1c2ccccc2Sc2cc(C=CC3(C=Cc4ccc5c(c4)Sc4ccccc4N5C)C=CC(c4ccccc4)=CC3)ccc21 (stereo not given) | 380
39 | CCCCc1ccc(C(=O)NCCC(C)(C)C)cc1 | 70 to 71
40 | CCCCCc1c(/C=C/C(=O)O)oc2cc(OC)ccc12 | 146 to 147
41 | CCc1cc(C=C[N+](=O)[O-])c(OC)nc1C | 105 to 107
42 | CN(C)C(=O)CSc1nc2ccccc2cc1-c1ccccc1 | 86 to 89
43 | Fc1ccc(C#Cc2nccs2)cc1 | 78 to 79
44 | Cn1nc(Br)c(I)c1-c1ccc(F)cc1Cl | 139 to 141
45 | CCOC(=O)C=Cc1ccc(O)c(C(F)(F)F)c1C(F)(F)F | 138 to 140
46 | CCCCNC(=O)Nc1ccc2c(c1Cl)C(c1ccccc1F)=NCC(=O)N2C | 196 to 198
47 | C=CCOc1ccc2oc(C(=O)OCC)cc2c1 | 34 to 36
48 | O=S1(=O)N(CCCl)c2cccc3c2N1CCC3 | 70
49 | CCCCCCCCCCCCCC=C1CC(CO)(COC(C)=O)OC1=O (racemic) | 58 to 59
50 | C#CC(CC(=O)OC(C)(C)C)N=Cc1ccccc1 (stereo not given) | 199 to 200
51 | COC(=O)c1ccc(Cl)c2nc(C(C)(C)C)oc12 | 130 to 131
52 | CC(=O)c1ccc(S)cc1OCC(=O)O | 149 to 150

Other lines, results leading:

Row | melting point [°C] | Structure (SMILES)
53 | 148 | COCCNc1ccc(N2CCOC2=O)cc1[N+](=O)[O-]
54 | 156 | CC1=NC(=Cc2ccc(F)cc2)C(=O)O1
55 | 136 to 137 | COc1ccc(CNc2nc(COCC(=O)O)nc3sc4c(c23)CCCC4)cc1Cl
56 | 120 to 122 | O=C(Nc1cccnc1Cl)N1CCc2ccccc2CC1
57 | 161 to 162 | COc1ccc(N2CCOCC2)c2sc(-c3ncc(-c4csc5ccccc45)[nH]3)nc12
58 | 49 to 53 | CN(C)C1CCN(c2nc(N3CCc4ccccc4C3)c3ncnc(N4CCOCC4)c3n2)CC1
59 | 78 to 80 | CCCc1nn(C)c2c(=O)n(CCCc3cccc(OC(C)(C)C(=O)O)c3)c(C)nc12
60 | 123 to 125 | O=C(NCCC1CC1)c1ccnc(N2CCN(Cc3ccc(F)cc3)C2=O)c1
61 | 98 to 100 | O=C(c1ccc2cc(Cl)ccc2c1)C1CCNCC1
62 | 170 to 172 | COc1cc(C2C3=C(COC3=O)Nc3ccc4cc[nH]c4c32)ccc1F (stereo not given)
63 | 207 | O=C(c1ccc(O)cc1)c1c(-c2ccccc2)oc2ccc([N+](=O)[O-])cc12
64 | 201 | Cc1nc(N)n(C)c(=O)c1CCN1CCN(c2noc3ccccc23)CC1
65 | 202 to 204 | Cc1noc(C)c1Cn1cc(NC(=O)c2scc(S(C)(=O)=O)c2Cl)cn1
66 | 143 | O=C(CN1C(=O)c2ccccc2C1=O)Nc1ccccc1Oc1ccccc1
67 | 177 to 178 | COc1cc2c(cc1O)CCN(Cc1cccc(O)c1)C2
68 | 229 to 231 | COc1ccc2c(c1)S(=O)c1nccnc1N2C (stereo not given)
69 | 94 to 97 | O=c1oc2c(c(O)c1C(C1CC1)C1CC1)CCCCCC2Cc1ccccc1 (stereo not given)
70 | 214 | CC(C)(C)c1ccc(NC(=O)c2cccc(C(OC(=O)Nc3ccc4[nH]ncc4c3)[C@@H]3CCCCN3)c2)cc1 (stereo not given in full)
71 | 180 to 182 | COc1cc2cc(CO)c(CO)c(C)c2cc1OC
72 | 102 to 105 | O=C1C(CCO)Oc2cc([N+](=O)[O-])ccc2N1Cc1ccccc1 (stereo not given)
73 | 122 to 124 | CN(C)S(=O)(=O)c1ccc2c(c1)C(=O)c1ccccc1CC2
74 | 175 to 177 | CN1C(=O)N(c2cc(Cl)cc(Cl)c2)C(=O)[C@]12CNC[C@H]2c1ccc(C#N)cc1
75 | 214 to 216 | CCn1c(-c2ccc(F)cc2)c(OCCOc2ccc(C(C)=C3SC(=O)NC3=O)cc2)c(=O)c2ccccc21
76 | 134 | O=c1c2ccc(OCCN3CCCCC3)cc2oc2cc(OCCN3CCCCC3)ccc12
77 | 32 | CCOC(=O)CC(c1ccc(OC)cc1)N1C(=O)c2ccccc2C1=O (stereo not given)
78 | 105 | CCC1(C)CCN(c2ccc([N+](=O)[O-])cc2C(=O)c2ccc(Cl)cc2)CC1
79 | 245 to 247 | COc1cc2ncc(C#N)c(Nc3ccccc3SC)c2cc1OC

Row | melting point [°C] | Structure (SMILES)
80 | 179 to 184 | COc1ccccc1N1CCCN(c2ccnc3sc(C(N)=O)c(N)c23)CC1
81 | 65 to 67 | CC(CCO)C(c1cc(F)ccc1F)S(=O)(=O)c1ccc(Cl)cc1 (stereo not given)
82 | 198 to 201 | CCOC(C)(OCC)C(=O)c1c[nH]c2ncc(-c3cc(OC)c(OC)c(OC)c3)nc12
83 | 153 to 155 | CCOC1Nc2c(O)cccc2C(=O)N2CCCC12 (stereo not given)
84 | 283 | CCC1=Nc2ccc(S(C)(=O)=O)cc2C(=O)C1
85 | 168 to 169 | N#Cc1cnc2cc(-c3ccc(CCN4CCOCC4)s3)ccc2c1Nc1ccc(Cl)cc1Cl
86 | 220 to 222 | Cc1cc(C=NNC(N)=S)ncc1[N+](=O)[O-]
87 | 172 to 176 | C=C1C(=O)OC2C1CCC(CO)=CCCC1(C)OC21 (stereo not given)
88 | 174 to 179 | O=C(O)CCCc1cc2cc(Cl)ccc2n1S(=O)(=O)c1ccc2c(c1)CCO2
89 | 149 to 153 | COC1=C(OC)C(=O)C2=C(CC(CCCCOc3ccc(C(=O)O)cc3)C2)C1=O
90 | 115 to 117 | CCOC(=O)C1CCc2[nH]c3ccc(F)cc3c2C1 (stereo not given)
91 | 166 to 168 | COC(=O)c1cccc2c1N=C(c1ccccc1Cl)CC2=O
92 | 166 to 168 | CNC(=O)C1=CC(C)(C)Oc2ccc([N+](=O)[O-])cc21
93 | 155 to 157 | COc1cc(N2C(=O)N3CCCCC3C2O)c(F)cc1Cl (stereo not given)
94 | 126 to 132 | Cc1ccc(Cn2c(=O)c3c(Cl)cc(Cl)cc3n(Cc3ccccc3)c2=O)cc1C
95 | 78 to 79 | O=C(OCc1ccccc1)C(=C1NCCCS1)[N+](=O)[O-]
96 | 117 to 121 | COC(=O)C(=C(/C)c1cc(OC)cc(OC)c1)/C(=C\c1ccccc1)C(=O)NN1CCN(C)CC1
97 | 195 to 196 | CC(=O)COc1ccc(N2N=C3c4cc(F)ccc4CCC3CC2=O)cc1 (stereo not given)
98 | 218 to 219 | COCCOc1cc(NS(=O)(=O)c2ccccn2)c2[nH]c(C3=NCC(CN4CCS(=O)(=O)CC4)S3)cc2c1 (stereo not given)
99 | 35 to 36 | CC(C)(C)C(=O)OC1CCCCC1=O (stereo not given)
100 | 226 to 228 | CCn1cc(C(=O)O)c(=O)c2cc(F)c(N3CCN(C)C(c4ccsc4)C3)cc21 (stereo not given)
101 | 146 to 155 | CS(=O)(=O)Nn1c(=O)[nH]c2cc([N+](=O)[O-])c(NC3CCCC3)cc2c1=O
102 | 235 to 236 | CC(=O)Nc1nc(NC(C)=O)nc(C2CCC(c3ccccc3)CC2)n1 (stereo not given)
103 | 177 to 180 | CN1CCN(C2=Nc3cc(C(F)(F)F)ccc3N3CCc4cccc2c43)CC1
104 | > 300 | O=C1c2ccccc2C(=O)N1CCCOc1cccc2c(O)nccc12
105 | 193 to 196 | O=C1NC(Cc2ccc(OCc3ccccc3)cn2)C(=O)NC1Cc1cccnc1 (stereo not given)
